The nature of data set [1]: Storage stability of purified lyophilised peaks. The following applies: stored at −20° C., several months (approx. 6). The protocol:
The cyclase purified from A. polypoides was used for the production of the dinucleotides for structural and functional studies. In a total volume of 0.4 ml of 10 mM Tris-HCl, pH 7.0, 0.05 mg of purified cyclase were incubated with 1 mM cADPR (or NAD^+), 5 mM adenine and 2 mM MgCl2 at room temperature. cADPR or NAD^+ was added to the reaction mixture every 6 hours, while every 24 hours fresh cyclase was added and an aliquot of the incubation was deproteinised with TCA (5% final concentration) and analysed by HPLC (analytical phosphate) to monitor dinucleotide production. After 3-5 days, the resulting incubation was extracted with TCA and 250 μl aliquots were injected into an HPLC column (preparative phosphate). The P18, P24 and P31 peaks were collected, lyophilised in a RotoVapor, re-dissolved in deionised water and injected into an HPLC column (preparative formate). […] The purified peaks produced by Axinella cyclase were used in in vitro experiments on the various cell types described hereinafter, for the enzymatic production of mononucleotides and nucleosides (see below), as internal and external HPLC standards to identify the dinucleotides in cell extracts, and for detecting the absorption spectra stored in the liquid chromatograph library as standards.

A further data set has as its system CD38^− cells. The data set is described as follows: Uptake of extracellularly added dinucleotides in CD38- cells. It is filed as in vitro ADME, human. The following applies: 15 μM added extracellularly.
Data set [2] has as its system HeLa-CD38^+ (whole cells). The data set can be described thus: Hydrolysis by CD38+ HeLa whole cells. The protocol: (§1) ADP-ribosyl cyclases from lower and higher Metazoa were incubated in the presence of 0.1 mM cADPR and 1 mM adenine at pH 7.4 in 10 mM Tris-HCl (A, B and C) or in PBS-glucose (D) at 22° C. (A and B) or at 37° C. (C and D) for 4 hours. Aliquots of the various incubations were deproteinised with TCA (trichloroacetic acid) and subjected to HPLC (analytical phosphate). Chromatograms representative of each incubation are shown. A. A. polypoides; B. A. californica; C. Human CD38 (recombinant); D. Human HeLa cells transfected with sense and antisense human CD38 (dashed chromatogram).
(§2) In table 1, the absolute values of the peak-forming and -hydrolysing activities are compared with the cADPR-forming and -hydrolysing activities for each enzyme. The activities are expressed as nmol/min/mg.

The next data set concerns Recombinant CD38. The data set can be described thus: Hydrolysis by recombinant CD38. The protocol:
as §1, §2

The subject of data set [3] is A. polypoides ADP-ribosyl cyclase. The data set is described as follows: Hydrolysis by purified Axinella polypoides ADP-ribosyl cyclase. Here is the method:
as §1, §2

Data set [4] has as its target T1, A. californica ADP-ribosyl cyclase (Aplysia californica, UniProt P29241).
T1 construct: The cyclase purified from the mollusc Aplysia californica was purchased from Sigma; purchased Sigma; host or cells: purified from the mollusc
T1 sequence (P29241 25-282): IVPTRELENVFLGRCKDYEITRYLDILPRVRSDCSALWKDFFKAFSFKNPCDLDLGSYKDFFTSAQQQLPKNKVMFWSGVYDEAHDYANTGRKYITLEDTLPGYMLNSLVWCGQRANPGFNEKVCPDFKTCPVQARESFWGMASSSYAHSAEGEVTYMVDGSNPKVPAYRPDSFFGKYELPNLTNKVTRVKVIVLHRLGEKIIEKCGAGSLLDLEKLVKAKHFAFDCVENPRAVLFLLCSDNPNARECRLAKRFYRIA
The data set can be described thus: Hydrolysis by Aplysia californica ADP-ribosyl cyclase. The data set is classed as in vitro ADME. The following applies: P18 to adenine and ADPR. The protocol: (A and B) or at 37° C. (C and D) for 4 hours. […] Chromatograms representative of each incubation are shown. A. A. polypoides; B. A. californica; C.
The activities are expressed as nmol/min/mg.

Data set [5] has as its system CFC (colony forming cells). The data set can be described thus: CFC colony growth from cord blood mononuclear cells in semi-solid medium. It is filed as cell-based, human. The following applies: Homo sapiens; 24 hours incubation of cord blood mononuclear cells, colonies counted after 2 weeks; read-out: IC50, inhibition of CFC colony growth. Here is the method:
Mononuclear cells isolated from cord blood were incubated in the presence of various concentrations of P18 (▴), P24 (▪) and the iso-adenosine units resulting from the enzymatic digestion of P18 (Δ) and P24 (□). After 24 hours, aliquots of cells (1-2×10^4) were seeded in semi-solid medium to allow for colony growth. Results are expressed as percentage of inhibition of colony growth compared with controls, represented by cells incubated with the same dilution of chromatographic buffer as present in the HPLC-purified compounds. The IC50 values were obtained from the logarithmic regression curves (R≧0.97). The results shown in this figure are the mean from at least three different experiments.
Mononuclear cells were isolated from cord blood (CB MNC) by a density gradient, washed by centrifugation and resuspended in complete medium (Mosmann, T. (1983) J. Immunol. Methods 65, 55-63). Cells (10^6/ml) were incubated for 24 hours in complete medium in the presence of different dinucleotides at concentrations comprised between 20 and 0.4 μM. Then, aliquots of cells (1-2×10^4) were seeded in semi-solid medium, supplemented with haemopoietic growth factors (Methocult, Stem Cell Technologies, Vancouver, BC), in order to allow colonies to develop. After 2 weeks in culture, the colonies which were grown were microscopically identified according to standard criteria (CFU-E, CFU-GM and CFU-GEM) and counted: each colony identifies a colony forming cell (CFC).

Structures are written as SMILES. Where two headings read alike, the source gives them in different places.

From US7868163B2, “Adenyl dinucleotides with antitumour activity and a method of preparing thereof” (Universita' Degli Studi Di Genova, priority 2005, dated 2011) come the findings set out here.

On to `Nc1ncnc2c1ncn2[C@@H]1O[C@H](CO[P@](=O)(O)O[P@](=O)(O)OC[C@H]2O[C@@H](n3cnc4c(N)ncnc43)[C@H](O)[C@@H]2O)[C@@H](O)[C@H]1O` [P31, diadenosine diphosphate, reference compound], for which the degradation on storage entry in data set [1] is “no dinucleotide degradation was observed”. The “rate of increase of intracellular concentration (uptake)” value with CD38^− cells is “approx. 2.4 pmol/min/mg”. Moreover, in data set [2] (HeLa-CD38^+ whole cells, P18 and P24 to adenine and ADPR), the hydrolysis activity came to 0.15 nmol/min/mg.

Consider `N=c1c2ncn3c2ncn1[C@@H]1O[C@H](COP(=O)(O)OP(=O)(O)OC[C@H]2O[C@@H]3[C@H](O)[C@@H]2O)[C@@H](O)[C@H]1O` [cADPR, cyclic ADP-ribose, reference compound], for which the hydrolysis activity with Recombinant CD38 turned out to be 308 nmol/min/mg; in data set [3], 170 nmol/min/mg; in data set [2], 0.49 nmol/min/mg; in data set [4] it was 770 nmol/min/mg.

By IC50 is commonly meant the concentration that inhibits the measured activity by half. For `Nc1c2ncnc-2ncn1[C@@H]1O[C@H](CO)[C@@H](O)[C@H]1O` [iso-adenosine from P18, 1-β-D-ribofuranosyladenine], in data set [5], the IC50 amounted to 37 µM.

Regarding `Nc1ncn([C@@H]2O[C@H](CO)[C@@H](O)[C@H]2O)c2ncnc1-2` [iso-adenosine from P24, 3-β-ribofuranosyladenine], the IC50 in data set [5] stood at 5 µM.
